In patent publication US6433150B1, “Anthracycline analogues bearing latent alkylating substituents” (Board of Regents, The University of Texas System, priority 1990, dated 2002):
Like-named read-outs stand apart in the source and are kept apart here. One block for each molecule: values may come before it.

Legend:
P388 = conditions: cited from earlier work
[1] = tested on: CEM cells (human T-lymphoblastic cell line); assay: Cytotoxicity studies, CEM cells; assay type: cell-based; conditions: for IC50: six days incubation with drug at 37° C.
[2] = tested on: CEM (VLB) cells (human T-lymphoblastic cell line resistant to Velban (vinblastine)); assay: Cytotoxicity studies, CEM (VLB) cells; assay type: cell-based; conditions: for Resistance index ([CEM(VLB)]/[CEM]): ratio of IC50 values; for IC50: six days incubation with drug at 37° C., Velban (vinblastine) resistant line
[3] = tested on: 8226R40 human myeloma cells; assay: Potency to 8226R40 human myeloma cells; assay type: cell-based
[4] = Solubility in aqueous media; assay type: physicochemical
Source text: (§1) To the best of applicants' knowledge, dialdehyde monoacetals such as 10 have not been reported previously. [These should be versatile synthetons in organic synthesis since the acetal ester groups can be cleaved under extremely mild conditions (weak base or esterase activity)]. Condensation of 10 with doxorubicin, 11, in the presence of NaCNBH3 generated 2a directly in >50% yield. Evidence for the structure of 2a was obtained by ^1H and COSY NMR, and by mass spectrometry.

Stability at neutral pH = assay type: physicochemical
Source text: as §1

Molecule: COc1cccc2c1C(=O)c1c(O)c3c(c(O)c1C2=O)C[C@@](O)(C(C)=O)C[C@@H]3O[C@H]1C[C@H](N2CCOCC2)[C@H](O)[C@H](C)O1 [3′-Deamino-3-(4-morpholinyl)daunorubicin]
- T/C value against P388 (P388): 166%
- active dose relative to the dose of doxorubicin (P388): one-fortieth

Molecule: COc1cccc2c1C(=O)c1c(O)c3c(c(O)c1C2=O)C[C@@](O)(C(=O)CO)C[C@@H]3O[C@H]1C[C@H](NCCCCC(OC(C)=O)OC(C)=O)[C@H](O)[C@H](C)O1.Cl [Compound 2a, N-(5,5-Diacetoxypentyl) doxorubicin hydrochloride]
- times more toxic to the parent CEM cells than doxorubicin ([1]; relative to doxorubicin): 60 times
- IC50 [1]: 0.15 nM
- cross resistance against the velban resistant mutant ([2]; compared with doxorubicin): markedly reduced cross resistance
- Resistance index ([CEM(VLB)]/[CEM]) [2]: 6
- IC50 [2]: 1 nM
- IC50 [3]: 1.5 nM
- times more potent to 8226R40 human myeloma cells than doxorubicin ([3]; relative to doxorubicin): 400 times
- solubility in aqueous media [4]: freely soluble
- stability at neutral pH (Stability at neutral pH): stable

- IC50 ([3]; Homo sapiens): 600 nM
Molecule: COc1cccc2c1C(=O)c1c(O)c3c(c(O)c1C2=O)C[C@@](O)(C(=O)CO)C[C@@H]3O[C@H]1C[C@H](N)[C@H](O)[C@H](C)O1 [Doxorubicin, reference compound]
- IC50 ([1]; Homo sapiens, CCRF-CEM, 144 h): 10 nM
- IC50 ([2]; Homo sapiens, CEM-VLB, 144 h): 1340 nM
- Resistance index ([CEM(VLB)]/[CEM]) [2]: 134
- T/C value against P388 (P388): 160%

Molecule: N-(2,2-Diacetoxyethyloxyethyl) doxorubicin HCl [Compound 2b]
- IC50 [1]: 3 nM
- Resistance index ([CEM(VLB)]/[CEM]) [2]: 5
- IC50 [2]: 15 nM
